Results: patent US10227323B2, “Glucosylceramide synthase inhibitors for the treatment of diseases” (BIOMARIN PHARMACEUTICAL INC., priority 2013, dated 2019)

What follows are molecules tested against T1, GCS (Canis lupus familiaris, UniProt A0A8I3MXG6) (assay: Assay 1: GCS Enzymatic Assay (MDCK cell lysate, C6-NBD-Ceramide, LC/MS)). Conditions: Table 2; data without asterisk; read-out: IC50 (nM) generated from Assay 1.
T1 sequence (A0A8I3MXG6 1-394): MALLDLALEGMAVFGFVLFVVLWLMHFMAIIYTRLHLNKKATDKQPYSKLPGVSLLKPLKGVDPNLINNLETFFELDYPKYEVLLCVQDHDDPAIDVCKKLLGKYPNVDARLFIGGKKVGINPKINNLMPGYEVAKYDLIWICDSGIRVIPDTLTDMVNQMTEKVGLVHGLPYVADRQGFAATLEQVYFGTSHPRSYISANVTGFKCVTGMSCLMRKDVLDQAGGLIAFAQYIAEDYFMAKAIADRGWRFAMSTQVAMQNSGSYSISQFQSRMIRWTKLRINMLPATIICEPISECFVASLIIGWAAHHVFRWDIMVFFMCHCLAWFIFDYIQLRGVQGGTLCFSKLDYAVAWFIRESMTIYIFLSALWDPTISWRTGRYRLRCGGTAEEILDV
Type: biochemical, canine
Summary of the method: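 LC/MS/MS measurement of glucosylceramide and NBD-ceramide after a 1 h, 37 °C reaction with 100 μM UDP-glucose and 10 μM C6-NBD-ceramide gave IC50s or percent inhibition.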

IC50 [nM]	Compound
< 50	CC(C)(O)c1ccc(-c2ccc(C(=O)C(=O)N[C@H](CN3CCCC3)[C@H](O)c3ccc(OC4CC4)c(Cl)c3)cc2)cc1 [Example 358, N-((1R,2R)-1-(3-chloro-4-cyclopropoxyphenyl)-1-hydroxy-3-(pyrrolidin-1-yl)propan-2-yl)-2-(4′-(2-hydroxypropan-2-yl)-[1,1′-biphenyl]-4-yl)-2-oxoacetamide]
< 50	O=C(N[C@H](CN1CCCC1)[C@H](O)c1ccc(OC2CC2)c(F)c1)C(=O)c1ccc(-c2ccc(Cl)s2)cc1 [Example 359, 2-(4-(5-chlorothiophen-2-yl)phenyl)-N-((1R,2R)-1-(4-cyclopropoxy-3-fluorophenyl)-1-hydroxy-3-(pyrrolidin-1-yl)propan-2-yl)-2-oxoacetamide]

Same assay, conditions: Table 3; MDCK cell lysate; read-out: IC50 (nM) generated from Assay 1

Compound	IC50 [nM]
O=C(N[C@H](CN1CCCC1)[C@H](O)c1ccc(OC2CC2)c(Cl)c1)C(=O)c1cc2cc(Cl)ccc2s1 [Example 384, N-((1R,2R)-1-(3-chloro-4-cyclopropoxyphenyl)-1-hydroxy-3-(pyrrolidin-1-yl)propan-2-yl)-2-(5-chlorobenzo[b]thiophen-2-yl)-2-oxoacetamide]	< 50
O=C(N[C@H](CN1CCCC1)[C@H](O)c1ccc(OC2CC2)c(Cl)c1)C(=O)c1ccc(-n2ccnn2)cc1 [Example 385, 2-(4-(1H-1,2,3-triazol-1-yl)phenyl)-N-((1R,2R)-1-(3-chloro-4-cyclopropoxyphenyl)-1-hydroxy-3-(pyrrolidin-1-yl)propan-2-yl)-2-oxoacetamide]	50 to 5000
O=C(N[C@H](CN1CCCC1)[C@H](O)c1ccc(Cl)cc1)C(=O)c1cc2ccc(Cl)cc2s1 [Example 386, 2-(6-chlorobenzo[b]thiophen-2-yl)-N-((1R,2R)-1-(4-chlorophenyl)-1-hydroxy-3-(pyrrolidin-1-yl)propan-2-yl)-2-oxoacetamide]	50 to 5000
O=C(N[C@H](CN1CCC1)[C@H](O)c1ccc(OC2CC2)c(F)c1)C(=O)c1cc2cc(Cl)ccc2s1 [Example 387, N-((1R,2R)-3-(azetidin-1-yl)-1-(4-cyclopropoxy-3-fluorophenyl)-1-hydroxypropan-2-yl)-2-(5-chlorobenzo[b]thiophen-2-yl)-2-oxoacetamide]	< 50
O=C(N[C@H](CN1CCCC1)[C@H](O)c1ccc(OC2CC2)c(F)c1)C(=O)c1ccc(C2CC2)cc1 [Example 395, N-((1R,2R)-1-(4-cyclopropoxy-3-fluorophenyl)-1-hydroxy-3-(pyrrolidin-1-yl)propan-2-yl)-2-(4-cyclopropylphenyl)-2-oxoacetamide]	< 50
O=C(N[C@H](CN1CCCC1)[C@H](O)c1cc(F)c2c(c1)OCCO2)C(F)(F)c1ccc(-c2ccc(Cl)s2)cc1 [Example 398, 2-(4-(5-chlorothiophen-2-yl)phenyl)-2,2-difluoro-N-((1R,2R)-1-(8-fluoro-2,3-dihydrobenzo[b][1,4]dioxin-6-yl)-1-hydroxy-3-(pyrrolidin-1-yl)propan-2-yl)acetamide]	< 50
O=C(N[C@H](CN1CCCC1)[C@H](O)c1ccc(OC2CC2)c(Cl)c1)C(=O)c1ccc(-n2cccn2)cc1 [Example 400, 2-(4-(1H-pyrazol-1-yl)phenyl)-N-((1R,2R)-1-(3-chloro-4-cyclopropoxyphenyl)-1-hydroxy-3-(pyrrolidin-1-yl)propan-2-yl)-2-oxoacetamide]	< 50
O=C(N[C@H](CN1CCCC1)[C@H](O)c1ccc(OC2CC2)c(Cl)c1)C(=O)c1ccc(-n2nccn2)cc1 [Example 403, 2-(4-(2H-1,2,3-triazol-2-yl)phenyl)-N-((1R,2R)-1-(3-chloro-4-cyclopropoxyphenyl)-1-hydroxy-3-(pyrrolidin-1-yl)propan-2-yl)-2-oxoacetamide]	< 50
O=C(N[C@H](CN1CCCC1)[C@H](O)c1ccc(OC(F)F)cc1)C(=O)c1cc2ccc(Cl)cc2s1 [Example 405, 2-(6-chlorobenzo[b]thiophen-2-yl)-N-((1R,2R)-1-(4-(difluoromethoxy)phenyl)-1-hydroxy-3-(pyrrolidin-1-yl)propan-2-yl)-2-oxoacetamide]	50 to 5000

Other lines, results leading:

IC50 [nM]	Compound
< 50	O=C(N[C@H](CN1CCCC1)[C@H](O)c1ccc(OC2CC2)cc1)C(=O)c1cc2ccccc2s1 [Example 388, 2-(benzo[b]thiophen-2-yl)-N-((1R,2R)-1-(4-cyclopropoxyphenyl)-1-hydroxy-3-(pyrrolidin-1-yl)propan-2-yl)-2-oxoacetamide]
50 to 5000	O=C(N[C@H](CN1CCCC1)[C@H](O)c1ccc(Cl)cc1)C(=O)c1ccc(-c2ccc(F)cc2)cc1 [Example 389, N-((1R,2R)-1-(4-chlorophenyl)-1-hydroxy-3-(pyrrolidin-1-yl)propan-2-yl)-2-(4′-fluoro-[1,1′-biphenyl]-4-yl)-2-oxoacetamide]
< 50	O=C(N[C@H](CN1CCCC1)[C@H](O)c1ccc(OC2CC2)cc1)C(F)(F)CCc1ccc2ccccc2c1 [Example 390, N-((1R,2R)-1-(4-cyclopropoxyphenyl)-1-hydroxy-3-(pyrrolidin-1-yl)propan-2-yl)-2,2-difluoro-4-(naphthalen-2-yl)butanamide]
< 50	O=C(N[C@H](CN1CCCC1)[C@H](O)c1ccc(OC2CC2)cc1)C(=O)c1cc2cc(Cl)ccc2s1 [Example 391, 2-(5-chlorobenzo[b]thiophen-2-yl)-N-((1R,2R)-1-(4-cyclopropoxyphenyl)-1-hydroxy-3-(pyrrolidin-1-yl)propan-2-yl)-2-oxoacetamide]
< 50	O=C(N[C@H](CN1CCCC1)[C@H](O)c1ccc(OC2CC2)cc1)C(=O)c1ccc(-c2ccc(Cl)s2)cc1 [Example 392, 2-(4-(5-chlorothiophen-2-yl)phenyl)-N-((1R,2R)-1-(4-cyclopropoxyphenyl)-1-hydroxy-3-(pyrrolidin-1-yl)propan-2-yl)-2-oxoacetamide]
< 50	O=C(N[C@H](CN1CCCC1)[C@H](O)c1ccc(OC2CC2)cc1)C(F)(F)c1ccc(-c2ccc(Cl)s2)cc1 [Example 393, 2-(4-(5-chlorothiophen-2-yl)phenyl)-N-((1R,2R)-1-(4-cyclopropoxyphenyl)-1-hydroxy-3-(pyrrolidin-1-yl)propan-2-yl)-2,2-difluoroacetamide]
< 50	O=C(N[C@H](CN1CCCC1)[C@H](O)c1ccc(OC2CC2)cc1)C(F)(F)c1ccc(-c2ccc(F)cc2)cc1 [Example 394, N-((1R,2R)-1-(4-cyclopropoxyphenyl)-1-hydroxy-3-(pyrrolidin-1-yl)propan-2-yl)-2,2-difluoro-2-(4′-fluoro-[1,1′-biphenyl]-4-yl)acetamide]
< 50	O=C(N[C@H](CN1CCCC1)[C@H](O)c1ccc(OC2CC2)c(Cl)c1)C(F)(F)c1ccc(-c2ccc(Cl)s2)cc1 [Example 396, N-((1R,2R)-1-(3-chloro-4-cyclopropoxyphenyl)-1-hydroxy-3-(pyrrolidin-1-yl)propan-2-yl)-2-(4-(5-chlorothiophen-2-yl)phenyl)-2,2-difluoroacetamide]
< 50	O=C(N[C@H](CN1CCCC1)[C@H](O)c1ccc(OC2CC2)c(F)c1)C(F)(F)c1ccc(-c2ccc(Cl)s2)cc1 [Example 397, 2-(4-(5-chlorothiophen-2-yl)phenyl)-N-((1R,2R)-1-(4-cyclopropoxy-3-fluorophenyl)-1-hydroxy-3-(pyrrolidin-1-yl)propan-2-yl)-2,2-difluoroacetamide]
< 50	O=C(N[C@H](CN1CCCC1)[C@H](O)c1ccc(OC2CC2)cc1)C(=O)c1cc2ccc(Cl)cc2s1 [Example 399, 2-(6-chlorobenzo[b]thiophen-2-yl)-N-((1R,2R)-1-(4-cyclopropoxyphenyl)-1-hydroxy-3-(pyrrolidin-1-yl)propan-2-yl)-2-oxoacetamide]
50 to 5000	C#Cc1ccc(C(=O)C(=O)N[C@H](CN2CCCC2)[C@H](O)c2ccc(OC3CC3)cc2)cc1 [Example 401, N-((1R,2R)-1-(4-cyclopropoxyphenyl)-1-hydroxy-3-(pyrrolidin-1-yl)propan-2-yl)-2-(4-ethynylphenyl)-2-oxoacetamide]
50 to 5000	O=C(N[C@H](CN1CCCC1)[C@H](O)c1ccc(OC2CC2)cc1)C(F)(F)CCc1ccc2cc(Cl)ccc2c1 [Example 402, 4-(6-chloronaphthalen-2-yl)-N-((1R,2R)-1-(4-cyclopropoxyphenyl)-1-hydroxy-3-(pyrrolidin-1-yl)propan-2-yl)-2,2-difluorobutanamide]
< 50	CN(C(=O)C(=O)c1ccc(-c2ccc(F)cc2)cc1)[C@H](CN1CCCC1)[C@H](O)c1ccc(OC2CC2)c(F)c1 [Example 404, N-((1R,2R)-1-(4-cyclopropoxy-3-fluorophenyl)-1-hydroxy-3-(pyrrolidin-1-yl)propan-2-yl)-2-(4′-fluoro-[1,1′-biphenyl]-4-yl)-N-methyl-2-oxoacetamide]

Same assay, conditions: Table 3; values marked *; MDCK cell lysate

Compound	% inhibition generated from Assay 1
O=C(N[C@H](CN1CCCC1)[C@H](O)c1ccc(OC2CC2)c(Cl)c1)/C(CCc1ccc2cc(F)ccc2c1)=N/O [Example 406, (E)-N-((1R,2R)-1-(3-chloro-4-cyclopropoxyphenyl)-1-hydroxy-3-(pyrrolidin-1-yl)propan-2-yl)-4-(6-fluoronaphthalen-2-yl)-2-(hydroxyimino)butanamide]	A* (the compound had a % inhibition of a percent inhibition of greater than or equal to about 50%)
